Measured values: PubChem BioAssay (NCI)
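Compound exposure: 48 hours, 5 concentrations, 96-well plates. TGI: total growth inhibition.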

What was measured:
Experiment in all cases: NCI anticancer screen, dose series, 48 h
[1] = test system: 786-0 renal
[2] = test system: A498 renal
[3] = test system: A549 NSCLC
[4] = test system: ACHN renal
[5] = test system: CAKI-1 renal
[6] = test system: CCRF-CEM leukemia
[7] = test system: COLO 205 colon
[8] = test system: DLD-1 colon
[9] = test system: DMS 114 small cell lung
[10] = test system: DMS 273 small cell lung
[11] = test system: HCC-2998 colon
[12] = test system: HCT-116 colon
[13] = test system: HCT-15 colon
[14] = test system: HL-60(TB) leukemia
[15] = test system: HOP-18 NSCLC
[16] = test system: HOP-62 NSCLC
[17] = test system: HOP-92 NSCLC
[18] = test system: HT29 colon
[19] = test system: IGROV1 ovarian
[20] = test system: K-562 leukemia
[21] = test system: KM12 colon
[22] = test system: KM20L2 colon
[23] = test system: LOX IMVI melanoma
[24] = test system: LXFL 529 NSCLC
[25] = test system: M14 melanoma
[26] = test system: M19-MEL melanoma
[27] = test system: MALME-3M melanoma
[28] = test system: MOLT-4 leukemia
[29] = test system: NCI-H226 lung
[30] = test system: NCI-H23 lung
[31] = test system: NCI-H460 lung
[32] = test system: NCI-H522 lung
[33] = test system: OVCAR-3 ovarian
[34] = test system: OVCAR-4 ovarian
[35] = test system: OVCAR-5 ovarian
[36] = test system: OVCAR-8 ovarian
[37] = test system: RPMI-8226 leukemia
[38] = test system: RXF-631 renal
[39] = test system: SF-268 CNS
[40] = test system: SF-295 CNS
[41] = test system: SF-539 CNS
[42] = test system: SK-MEL-2 melanoma
[43] = test system: SK-MEL-28 melanoma
[44] = test system: SK-MEL-5 melanoma
[45] = test system: SK-OV-3 ovarian
[46] = test system: SN12C renal
[47] = test system: SNB-19 CNS
[48] = test system: SNB-75 CNS
[49] = test system: SR leukemia
[50] = test system: SW-620 colon
[51] = test system: TK-10 renal
[52] = test system: U251 CNS
[53] = test system: UACC-257 melanoma
[54] = test system: UACC-62 melanoma
[55] = test system: UO-31 renal
[56] = test system: XF 498 CNS
[57] = test system: EKVX NSCLC
[58] = test system: RXF 393 renal
[59] = test system: SNB-78 CNS

Structure (SMILES): C[C@]12CCC(=O)C[C@H]1CCC(O)[C@@H]2Br (stereo partly drawn)
- TGI [1]: > 100 µM
- TGI [2]: > 100 µM
- TGI [3]: > 100 µM
- TGI [4]: > 100 µM
- TGI [5]: > 100 µM
- TGI [6]: > 100 µM
- TGI [7]: > 100 µM
- TGI [8]: > 100 µM
- TGI [9]: > 100 µM
- TGI [10]: > 100 µM
- TGI [11]: > 100 µM
- TGI [12]: > 100 µM
- TGI [13]: > 100 µM
- TGI [14]: > 100 µM
- TGI [15]: > 100 µM
- TGI [16]: > 100 µM
- TGI [17]: > 100 µM
- TGI [18]: > 100 µM
- TGI [19]: > 100 µM
- TGI [20]: > 100 µM
- TGI [21]: > 100 µM
- TGI [22]: > 100 µM
- TGI [23]: > 100 µM
- TGI [24]: > 100 µM
- TGI [25]: > 100 µM
- TGI [26]: > 100 µM
- TGI [27]: > 100 µM
- TGI [28]: > 100 µM
- TGI [29]: > 100 µM
- TGI [30]: > 100 µM
- TGI [31]: > 100 µM
- TGI [32]: > 100 µM
- TGI [33]: > 100 µM
- TGI [34]: > 100 µM
- TGI [35]: > 100 µM
- TGI [36]: > 100 µM
- TGI [37]: > 100 µM
- TGI [38]: > 100 µM
- TGI [39]: > 100 µM
- TGI [40]: > 100 µM
- TGI [41]: > 100 µM
- TGI [42]: > 100 µM
- TGI [43]: > 100 µM
- TGI [44]: > 100 µM
- TGI [45]: > 100 µM
- TGI [46]: > 100 µM
- TGI [47]: > 100 µM
- TGI [48]: > 100 µM
- TGI [49]: > 100 µM
- TGI [50]: > 100 µM
- TGI [51]: > 100 µM
- TGI [52]: > 100 µM
- TGI [53]: > 100 µM
- TGI [54]: > 100 µM
- TGI [55]: > 100 µM
- TGI [56]: > 100 µM

Structure (SMILES): Cn1c(=O)nc2n(-c3cccc(Cl)c3)c3ccccc3nc-2c1=O
- TGI [1]: > 100 µM
- TGI [2]: 79.3 µM
- TGI [3]: 33 µM
- TGI [4]: 29.8 µM
- TGI [5]: 70 µM
- TGI [6]: 50.5 µM
- TGI [7]: 16 µM
- TGI [9]: 20 µM
- TGI [10]: 25.1 µM
- TGI [57]: 26.9 µM
- TGI [11]: 25.6 µM
- TGI [12]: 30.8 µM
- TGI [13]: 30.2 µM
- TGI [15]: 85.5 µM
- TGI [16]: 90.9 µM
- TGI [18]: 21.4 µM
- TGI [19]: 54 µM
- TGI [20]: 38.2 µM
- TGI [21]: 44.9 µM
- TGI [22]: 23.8 µM
- TGI [23]: 59.8 µM
- TGI [24]: 72.8 µM
- TGI [25]: 24 µM
- TGI [27]: 12.3 µM
- TGI [28]: 42 µM
- TGI [29]: 74.9 µM
- TGI [30]: 21.9 µM
- TGI [31]: 26.2 µM
- TGI [32]: 30.7 µM
- TGI [33]: 6.61 µM
- TGI [34]: 24.6 µM
- TGI [35]: 40.8 µM
- TGI [36]: 78.1 µM
- TGI [37]: 51 µM
- TGI [58]: 83.3 µM
- TGI [38]: 40.8 µM
- TGI [39]: > 100 µM
- TGI [40]: 62.1 µM
- TGI [41]: 33 µM
- TGI [42]: 40.7 µM
- TGI [44]: 25.2 µM
- TGI [45]: > 100 µM
- TGI [46]: 28.5 µM
- TGI [48]: 51.8 µM
- TGI [59]: 57.7 µM
- TGI [50]: 25 µM
- TGI [51]: 73.6 µM
- TGI [52]: 37.7 µM
- TGI [53]: 23.8 µM
- TGI [54]: 6.36 µM
- TGI [55]: > 100 µM
- TGI [56]: 35.3 µM
